Experiments:
[1] = molecular target: TR beta-LBD (thyroid hormone receptor beta) (Homo sapiens (Human), UniProt P10828); assay: LanthaScreen TR-FRET Thyroid Receptor beta Coactivator Assay (agonist screening); assay type: biochemical; details: for THRβ-Selectivity: THR beta over THR alpha, derived from T3-selectivity normalized data; for EC50: TR-FRET coactivator assay, TR beta-LBD 1.0 nM, 2 hour incubation, average of duplicate runs, read-out: EC50 THRβ-FRET
Method: (§1) Example B1: Time-Resolved Fluorescence Resonance Energy Transfer (TR-FRET) Assay for Thyroid Hormone Receptor Agonist Screening
(§2) LanthaScreen™ TR-FRET Thyroid Receptor alpha Coactivator Assay kit (ThermoFisher) and LanthaScreen™ TR-FRET Thyroid Receptor beta Coactivator Assay kit (ThermoFisher) were used for agonist compound screening. Compounds in DMSO were diluted using ECHO Liquid Handler (Labcyte Inc.) into 384 plates in 10-point 3-fold series in duplicate (5 micro M final top concentration). Buffer C (ThermoFisher) was added to each well before the 4× mixture of fluorescein-SCR2-2 coactivator (200 nM final concentration), Terbium-labeled anti-GST antibody (2 nM final concentration), and TR alpha-LBD (0.4 nM final concentration) or TR beta-LBD (1.0 nM final concentration) was added. After 2 hour incubation at room temperature in dark, the TR-FRET signal was measured on an EnVision plate reader (PerkinElmer) with excitation at 340 nm and dual emission readout at 495 and 520 nm with the delay time of 100 micro second and the integration time of 200 micro second. The ratio of emission signal at 520 and at 495 was used to calculate EC50 using GraphPad Prism (GraphPad Software). In every batch of compound screening, T3 (L-3,3′,5-Triiodothyronine sodium salt, >95%) (Calbiochem) was used as reference compound. The EC50 of T3 measured were within 3-fold of the reference value provided by the assay kit manufacturer (ThermoFisher Scientific). The Z′ factors measured in every batch of screening using T3 as high percent effect (HPE) control and 0.5% DMSO as zero percent effect (ZPE) control were in the range of 0.5 to 0.8. Compounds' THR-beta selectivity values are derived from T3-selectivity normalized data.

[2] = molecular target: TR alpha-LBD (thyroid hormone receptor alpha) (Homo sapiens (Human), UniProt P10827); assay: LanthaScreen TR-FRET Thyroid Receptor alpha Coactivator Assay (agonist screening); assay type: biochemical; details: TR alpha-LBD 0.4 nM, 2 hour incubation, average of duplicate runs, read-out: EC50 THRα-FRET
Sequence of TR alpha-LBD (thyroid hormone receptor alpha) (P10827 other isoform, or with tags, fused parts or gaps del 1-162, other chains not shown): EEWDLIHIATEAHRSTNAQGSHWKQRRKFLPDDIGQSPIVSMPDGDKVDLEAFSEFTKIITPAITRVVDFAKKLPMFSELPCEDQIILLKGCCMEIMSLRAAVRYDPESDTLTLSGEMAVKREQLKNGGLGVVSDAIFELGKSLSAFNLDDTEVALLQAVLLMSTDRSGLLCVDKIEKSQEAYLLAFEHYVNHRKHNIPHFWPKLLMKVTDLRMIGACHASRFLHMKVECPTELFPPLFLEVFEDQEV
Method: as §1, §2

Sequence of TR beta-LBD (thyroid hormone receptor beta) (P10828 217-461): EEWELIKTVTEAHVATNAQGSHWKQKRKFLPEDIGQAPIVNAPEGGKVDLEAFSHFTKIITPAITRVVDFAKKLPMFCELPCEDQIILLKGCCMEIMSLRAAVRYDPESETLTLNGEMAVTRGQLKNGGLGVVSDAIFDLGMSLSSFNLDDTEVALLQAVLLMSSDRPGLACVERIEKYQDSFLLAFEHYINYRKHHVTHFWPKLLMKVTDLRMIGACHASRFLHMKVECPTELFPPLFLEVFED

CC(C)c1cc(Oc2c(Cl)cc(NC(=O)c3noc(=O)[nH]3)c3c2CCC3)nn(C)c1=O [Example 24, N-(6-chloro-7-((5-isopropyl-1-methyl-6-oxo-1,6-dihydropyridazin-3-yl)oxy)-2,3-dihydro-1H-inden-4-yl)-5-oxo-4,5-dihydro-1,2,4-oxadiazole-3-carboxamide]
THRβ-Selectivity [1]: 39.5
EC50 [1]: 188 nM
EC50 [2]: 2050 nM

O=C(Nc1cc(Cl)c(Oc2cc(C3CC3)c(=O)[nH]n2)c(Cl)c1)c1noc(=O)[nH]1 [Example 25, N-(3,5-dichloro-4-((5-cyclopropyl-6-oxo-1,6-dihydropyridazin-3-yl)oxy)phenyl)-5-oxo-4,5-dihydro-1,2,4-oxadiazole-3-carboxamide]
THRβ-Selectivity [1]: 42.1
EC50 [1]: 231 nM
EC50 [2]: 2420 nM

CC(C)c1cc(Oc2c(Cl)cc(NC(=O)c3noc(=O)[nH]3)c(F)c2Cl)nn(C)c1=O [Example 26, N-(3,5-dichloro-2-fluoro-4-((5-isopropyl-1-methyl-6-oxo-1,6-dihydropyridazin-3-yl)oxy)phenyl)-5-oxo-4,5-dihydro-1,2,4-oxadiazole-3-carboxamide]
THRβ-Selectivity [1]: 44.6
EC50 [1]: 58.1 nM
EC50 [2]: 699 nM

CC(C)c1cc(Oc2c(Cl)cc(NCc3noc(=O)[nH]3)c(F)c2Cl)nn(C)c1=O [Example 27, 3-(((3,5-dichloro-2-fluoro-4-((5-isopropyl-1-methyl-6-oxo-1,6-dihydropyridazin-3-yl)oxy)phenyl)amino)methyl)-1,2,4-oxadiazol-5(4H)-one]
THRβ-Selectivity [1]: 21.5
EC50 [1]: 26.8 nM
EC50 [2]: 144 nM

CC(C)(C)c1cc(Oc2c(Cl)cc(NC(=O)c3noc(=O)[nH]3)cc2Cl)n[nH]c1=O [Example 28, N-(4-((5-(tert-butyl)-6-oxo-1,6-dihydropyridazin-3-yl)oxy)-3,5-dichlorophenyl)-5-oxo-4,5-dihydro-1,2,4-oxadiazole-3-carboxamide]
THRβ-Selectivity [1]: 67
EC50 [1]: 286 nM
EC50 [2]: 4260 nM

CC(O)c1cc(Oc2c(Cl)cc(NC(=O)c3noc(=O)[nH]3)cc2Cl)n[nH]c1=O (stereo not drawn) [Example 29, N-(3,5-dichloro-4-((5-(1-hydroxyethyl)-6-oxo-1,6-dihydropyridazin-3-yl)oxy)phenyl)-5-oxo-4,5-dihydro-1,2,4-oxadiazole-3-carboxamide]
THRβ-Selectivity [1]: 88.9
EC50 [1]: 235 nM
EC50 [2]: 4340 nM

C[C@@H](O)c1cc(Oc2c(Cl)cc(NC(=O)c3noc(=O)[nH]3)cc2Cl)n[nH]c1=O [Example 29P1, (R)—N-(3,5-dichloro-4-((5-(1-hydroxyethyl)-6-oxo-1,6-dihydropyridazin-3-yl)oxy)phenyl)-5-oxo-4,5-dihydro-1,2,4-oxadiazole-3-carboxamide]
THRβ-Selectivity [1]: >10.4
EC50 [1]: 2640 nM
EC50 [2]: > 5000 nM

C[C@H](O)c1cc(Oc2c(Cl)cc(NC(=O)c3noc(=O)[nH]3)cc2Cl)n[nH]c1=O [Example 29P2, (S)—N-(3,5-dichloro-4-((5-(1-hydroxyethyl)-6-oxo-1,6-dihydropyridazin-3-yl)oxy)phenyl)-5-oxo-4,5-dihydro-1,2,4-oxadiazole-3-carboxamide]
THRβ-Selectivity [1]: 80.8
EC50 [1]: 91.3 nM
EC50 [2]: 1760 nM

Cc1cc(NC(=O)c2noc(=O)[nH]2)cc(C)c1Cc1cc(C(C)C)c(=O)[nH]n1 [Example 30, N-(4-((5-isopropyl-6-oxo-1,6-dihydropyridazin-3-yl)methyl)-3,5-dimethylphenyl)-5-oxo-4,5-dihydro-1,2,4-oxadiazole-3-carboxamide]
THRβ-Selectivity [1]: 14.3
EC50 [1]: 821 nM
EC50 [2]: 3110 nM

O=C(Nc1cc(Cl)c(Oc2cc(C34CC(C3)C4)c(=O)[nH]n2)c(Cl)c1)c1noc(=O)[nH]1 [Example 31, N-(4-((5-(bicyclo[1.1.1]pentan-1-yl)-6-oxo-1,6-dihydropyridazin-3-yl)oxy)-3,5-dichlorophenyl)-5-oxo-4,5-dihydro-1,2,4-oxadiazole-3-carboxamide]
THRβ-Selectivity [1]: >34.8
EC50 [1]: 600 nM
EC50 [2]: > 5000 nM

CCC(O)c1cc(Oc2c(Cl)cc(NC(=O)c3noc(=O)[nH]3)cc2Cl)n[nH]c1=O (stereo not drawn) [Example 32, N-(3,5-dichloro-4-((5-(1-hydroxypropyl)-6-oxo-1,6-dihydropyridazin-3-yl)oxy)phenyl)-5-oxo-4,5-dihydro-1,2,4-oxadiazole-3-carboxamide]
THRβ-Selectivity [1]: 77.9
EC50 [1]: 86.4 nM
EC50 [2]: 1550 nM

CC[C@@H](O)c1cc(Oc2c(Cl)cc(NC(=O)c3noc(=O)[nH]3)cc2Cl)n[nH]c1=O [Example 32P1, (R)—N-(3,5-dichloro-4-((5-(1-hydroxypropyl)-6-oxo-1,6-dihydropyridazin-3-yl)oxy)phenyl)-5-oxo-4,5-dihydro-1,2,4-oxadiazole-3-carboxamide]
THRβ-Selectivity [1]: 27.9
EC50 [1]: 450 nM
EC50 [2]: 4230 nM

CC[C@H](O)c1cc(Oc2c(Cl)cc(NC(=O)c3noc(=O)[nH]3)cc2Cl)n[nH]c1=O [Example 32P2, (S)—N-(3,5-dichloro-4-((5-(1-hydroxypropyl)-6-oxo-1,6-dihydropyridazin-3-yl)oxy)phenyl)-5-oxo-4,5-dihydro-1,2,4-oxadiazole-3-carboxamide]
THRβ-Selectivity [1]: 81
EC50 [1]: 43.3 nM
EC50 [2]: 1150 nM

CC(C)(O)c1cc(Oc2c(Cl)cc(NC(=O)c3noc(=O)[nH]3)cc2Cl)n[nH]c1=O [Example 33, N-(3,5-dichloro-4-((5-(2-hydroxypropan-2-yl)-6-oxo-1,6-dihydropyridazin-3-yl)oxy)phenyl)-5-oxo-4,5-dihydro-1,2,4-oxadiazole-3-carboxamide]
THRβ-Selectivity [1]: >84.3
EC50 [1]: 212 nM
EC50 [2]: > 5000 nM

CC(C)c1cc(Oc2c(Cl)cc(NC(=O)c3noc(=O)[nH]3)c(F)c2Cl)n[nH]c1=O [Example 34, N-(3,5-dichloro-2-fluoro-4-((5-isopropyl-6-oxo-1,6-dihydropyridazin-3-yl)oxy)phenyl)-5-oxo-4,5-dihydro-1,2,4-oxadiazole-3-carboxamide]
THRβ-Selectivity [1]: 10.9
EC50 [1]: 166 nM
EC50 [2]: 577 nM

CC(CO)c1cc(Oc2c(Cl)cc(NC(=O)c3noc(=O)[nH]3)cc2Cl)nn(C)c1=O (stereo not drawn) [Example 35, N-(3,5-dichloro-4-((5-(1-hydroxypropan-2-yl)-1-methyl-6-oxo-1,6-dihydropyridazin-3-yl)oxy)phenyl)-5-oxo-4,5-dihydro-1,2,4-oxadiazole-3-carboxamide]
THRβ-Selectivity [1]: 15.8
EC50 [1]: 762 nM
EC50 [2]: 2600 nM

CC(CO)c1cc(Oc2c(Cl)cc(NC(=O)c3noc(=O)[nH]3)cc2Cl)n[nH]c1=O (stereo not drawn) [Example 36, N-(3,5-dichloro-4-((5-(1-hydroxypropan-2-yl)-6-oxo-1,6-dihydropyridazin-3-yl)oxy)phenyl)-5-oxo-4,5-dihydro-1,2,4-oxadiazole-3-carboxamide]
THRβ-Selectivity [1]: >15.7
EC50 [1]: 468 nM
EC50 [2]: > 5000 nM

Cn1nc(Oc2c(Cl)cc(NC(=O)c3noc(=O)[nH]3)cc2Cl)cc(C(C)(C)O)c1=O [Example 37, N-(3,5-dichloro-4-((5-(2-hydroxypropan-2-yl)-1-methyl-6-oxo-1,6-dihydropyridazin-3-yl)oxy)phenyl)-5-oxo-4,5-dihydro-1,2,4-oxadiazole-3-carboxamide]
THRβ-Selectivity [1]: 15.5
EC50 [1]: 34.5 nM
EC50 [2]: 212 nM
